Consider 8 molecules from US6486193B2, “3-substituted pyrrolidines useful as inhibitors of matrix metalloproteinases” (Aventis Pharmaceuticals Inc., priority 1998, dated 2002).

Common to all, as to type: biochemical
In one assay the target is T1, MMP-3 (Homo sapiens, UniProt P08254).
T1 construct: The active MMP-3 was obtained by treatment of proMMP-3 with trypsin; endogenous in cells; host or cells: human rheumatoid synovial fibroblasts stimulated with macrophage-conditioned medium (secreted proenzyme purified from the medium)
T1 sequence (P08254 100-477): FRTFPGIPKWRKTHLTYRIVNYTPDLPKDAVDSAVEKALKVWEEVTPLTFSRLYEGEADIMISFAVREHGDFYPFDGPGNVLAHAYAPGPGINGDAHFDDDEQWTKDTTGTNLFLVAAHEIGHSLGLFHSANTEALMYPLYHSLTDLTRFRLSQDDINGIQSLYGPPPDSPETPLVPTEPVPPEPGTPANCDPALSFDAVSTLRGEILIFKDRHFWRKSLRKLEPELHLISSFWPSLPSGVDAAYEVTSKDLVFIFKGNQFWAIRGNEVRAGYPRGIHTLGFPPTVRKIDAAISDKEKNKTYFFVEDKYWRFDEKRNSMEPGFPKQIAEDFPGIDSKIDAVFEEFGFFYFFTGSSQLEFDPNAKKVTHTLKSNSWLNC
Nature of the assay: Determination of inhibition constant (Ki) for MMP-3, fluorogenic substrate. The following applies: footnote: results are identical for MMP-1, MMP-2, MMP-3, MMP-13 and MMP-14, read-out: MMP Ki app. The method, then: ProMMP-3 (EC 3.4.24.17; Stromelysin-1) was purified from culture medium of human rheumatoid synovial fibroblasts stimulated with macrophage-conditioned medium according to Okada, Y. et al., J. Biol. Chem. 261, 14245-14255 (1986). The active MMP-3 was obtained by treatment of proMMP-3 with trypsin (5 μg/mL) at 37° C. for 30 minutes, followed by addition of soybean trypsin inhibitor (50 μg/mL). Aliquots of the activated MMP-3 were stored at −20° C.
The activated MMP-3 is assayed using a fluorogenic substrate, Mca-Pro-Leu-Gly-Leu-Dpa-Ala-Arg-NH2, Knight, C.G. et al., FEBS Lett. 296, 263-266 (1992), at 37° C. in an assay buffer containing 50 mM Tris, pH 7.6, 0.2 M sodium chloride, 50 mM calcium chloride, and 0.02% Brij-35. The increase in fluorescence due to cleavage of Gly-Leu peptide bond by MMP-3 was monitored with Perkin-Elmer LS50B Fluorimeter (λex 328 nm, λem 393 nm, excitation slit 2.5, emission slit 10). Substrate and inhibitor stock solutions were made in DMF and 0.1 % HCl-DMF, respectively. For determination of Ki values for MMP-3 inhibitors, a series of intermediate inhibitor solutions were prepared in 0.1% HCl-DMF and 1 or 2 μL of the diluted inhibitor solution was mixed with 1 μL of 2 mM substrate solution in DMF in a quartz cuvette containing 2 mL of assay buffer. The enzyme (10 μL of 0.2 μM MMP-3 dilution in assay buffer) was added at the last to start the reaction. For routine measurement of a Ki value for a reversible, competitive inhibitor, the initial rates in the presence of at least four inhibitor concentrations (two concentrations above Ki and two concentrations below Ki) were measured using [S]=1 μM (<<Km) and [MMP-3]=1 nM. Under these conditions, the measured Ki, app is close to true Ki.
The K, for a competitive inhibitor is calculated using: V0/vi=(1+[I]/Ki, app) and Ki=Ki, app/(1+[S]/Km), where v0 is the initial rate in the absence of inhibitor, vi is the initial rate in the presence of inhibitor at the concentration of [I], [S] is the substrate concentration, and Km is the Michaelis constant. If slow binding is observed (i.e. if the approach to the binding equilibrium is slow), the final steady-state rate rather than the initial rate is taken as vi.

The target in a further assay is MMP-13 (Homo sapiens, UniProt P45452). The experiment in a line: Ki app for MMP-13. Particulars: footnote: results are identical for MMP-1, MMP-2, MMP-3, MMP-13 and MMP-14.
In another assay the target is MMP-14 (Homo sapiens, UniProt P50281). The experiment in a line: Ki app for MMP-14. The following applies: footnote: results are identical for MMP-1, MMP-2, MMP-3, MMP-13 and MMP-14.
The next assay concerns the target MMP-8 (Homo sapiens, UniProt P22894). The experiment in a line: MMP-8 enzyme activity, quenched fluorigenic substrate, 96 well plate. Particulars: read-out: MMP-8 Ki app. The method, then: The MMP-8 data was determined according to Knight C. G. et al., Febs Lett, 296, 263-266 (1992), “A novel coumarin-labelled peptide for sensitive continuous assays of the matrix metalloproteinases” in the modification of K. U. Weithmann et al., Inflamm. Res. 46 (7), 246-252 (1997), “Effects of tiaprofenic acid on urinary pyridinium crosslinks in adjuvant arthritic rats: Comparison and doxycycline effects on human matrix metalloproteinases and cellular cytokine generation in vitro” as follows:
Enzyme activity of MMP was determined in 96 well titer plate format in a luminescence spectrometer (LS 50B, Perkin Elmer, Langen, FRG), using the quenched fluorigenic substrate 7-methoxycoumarin-4-yl) acetyl-pro-leu-gly-leu-3-(2′,4′-dinitrophenyl)-L-2,3-diaminopropionyl-ala-arg-NH2 (λex=328 nm, λem=393 nm), available from Bachem, Heidelberg, FRG. Each well contained: 70 μl buffer (0.1 mol/l tris/HCl, pH=7.5; 0.1 mol/l NaCl; 0.01 mol/l CaCl2,0.05% Brij 35™), 10 μl enzyme, and 10 μl drug in 10%DMSO. After preincubation for 15 min at room temperature the reaction was started by addition of 10 μl substrate (1 mmol/l in 10% DMSO). Initial velocity of enzymatic reaction was determined without drug (=100%) or, resp. with different drug concentrations.

Sequence of MMP-8 (P22894 101-467): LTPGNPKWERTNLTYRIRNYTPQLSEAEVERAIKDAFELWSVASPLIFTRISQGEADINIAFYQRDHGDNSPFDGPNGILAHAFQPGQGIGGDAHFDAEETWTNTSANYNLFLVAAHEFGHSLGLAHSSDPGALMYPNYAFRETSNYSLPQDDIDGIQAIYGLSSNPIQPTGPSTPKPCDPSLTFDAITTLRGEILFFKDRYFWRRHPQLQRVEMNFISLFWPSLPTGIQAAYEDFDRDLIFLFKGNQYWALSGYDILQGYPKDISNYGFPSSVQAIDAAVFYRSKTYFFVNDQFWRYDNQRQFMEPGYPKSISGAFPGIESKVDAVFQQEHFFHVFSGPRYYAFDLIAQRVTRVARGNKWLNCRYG

As for `CNC(=O)[C@@H](Cc1cccnc1)NC(=O)[C@@H]1C(Cc2ccccc2)CCN1C(=O)[C@@H](S)C(C)C` (stereo in doubt) [Compound 1f, (2S,3S)-3-Benzyl-1-((S)-2-mercapto-3-methyl-butanoyl)-pyrrolidine-2-carboxylic acid ((R)-1-methylcarbamoyl-2-pyridin-3-yl-ethyl)-amide], the Ki on MMP-3, on MMP-13, at MMP-14 and on MMP-8 was > 10 µM each time.
On to `CNC(=O)[C@H](Cc1ccc(O)cc1)NC(=O)[C@@H]1[C@@H](Cc2ccccc2)CCN1C(=O)[C@@H](S)C(C)C` [Compound 1a, (2S,3S)-3-Benzyl-1-((S)-2-mercapto-3-methyl-butanoyl)-pyrrolidine-2-carboxylic acid [(S)-2-(4-hydroxy-phenyl)-1-methylcarbamoyl-ethyl]-amide], for which the Ki at MMP-3, at MMP-13, on MMP-14 and on MMP-8 was > 10 µM in each case.
For the molecule `CNC(=O)[C@H](Cc1ccc(O)cc1)NC(=O)[C@@H]1[C@H](Cc2ccccc2)CCN1C(=O)[C@@H](S)C(C)C` [Compound 1b, (2S,3R)-3-Benzyl-1-((S)-2-mercapto-3-methyl-butanoyl)-pyrrolidine-2-carboxylic acid [(S)-2-(4-hydroxy-phenyl)-1-methylcarbamoyl-ethyl]-amide], the Ki is > 10 µM at MMP-3, > 10 µM at MMP-13, > 10 µM at MMP-14 and 3 µM on MMP-8.
On to `CNC(=O)[C@H](Cc1cccnc1)NC(=O)[C@@H]1[C@@H](Cc2ccccc2)CCN1C(=O)[C@@H](S)C(C)C` [Compound 1c, (2S,3S)-3-Benzyl-1-((S)-2-mercapto-3-methyl-butanoyl)-pyrrolidine-2-carboxylic acid ((S)-1-methylcarbamoyl-2-pyridin-3-yl-ethyl)-amide], for which the Ki on MMP-3 is > 10 µM; on MMP-13, > 10 µM; on MMP-14 it was > 10 µM; at MMP-8, 9 µM.
On to `CNC(=O)[C@H](Cc1cccnc1)NC(=O)[C@@H]1[C@H](Cc2ccccc2)CCN1C(=O)[C@@H](S)C(C)C` [Compound 1d, (2S,3R)-3-Benzyl-1-((S)-2-mercapto-3-methyl-butanoyl)-pyrrolidine-2-carboxylic acid ((S)-1-methylcarbamoyl-2-pyridin-3-yl-ethyl)-amide], for which the Ki on MMP-3 was > 10 µM; on MMP-13, > 10 µM; on MMP-14, > 10 µM; at MMP-8, 4 µM.
On to `CNC(=O)[C@@H](Cc1cccnc1)NC(=O)[C@@H]1[C@@H](Cc2ccccc2)CCN1C(=O)[C@@H](S)C(C)C` [Compound 1e, (2S,3S)-3-Benzyl-1-((S)-2-mercapto-3-methyl-butanoyl)-pyrrolidine-2-carboxylic acid ((R)-1-methylcarbamoyl-2-pyridin-3-yl-ethyl)-amide], for which the Ki on MMP-3, at MMP-13, on MMP-14 and at MMP-8 was > 10 µM in each case.
As to `CNC(=O)[C@@H](NC(=O)[C@@H]1[C@@H](Cc2ccccc2)CCN1C(=O)[C@@H](S)C(C)C)C(C)(C)C` [Compound 1g, (2S,3S)-3-Benzyl-1-((S)-2-mercapto-3-methyl-butanoyl)-pyrrolidine-2-carboxylic acid ((S)-2,2-dimethyl-1-methylcarbamoyl-propyl)-amide], the Ki on MMP-3, on MMP-13, at MMP-14 and on MMP-8 was > 10 µM in each case.
For the molecule `CNC(=O)[C@@H](NC(=O)[C@@H]1[C@H](Cc2ccccc2)CCN1C(=O)[C@@H](S)C(C)C)C(C)(C)C` [Compound 1h, (2S,3R)-3-Benzyl-1-((S)-2-mercapto-3-methyl-butanoyl)-pyrrolidine-2-carboxylic acid ((S)-2,2-dimethyl-1-methylcarbamoyl-propyl)-amide], the Ki is > 10 µM at MMP-3, > 10 µM at MMP-13, > 10 µM on MMP-14 and 3 µM at MMP-8.
